Holding throughout (assay type): cell-based
For experiment [1], the system named is cancerous cell lines (e.g., HT-29, Hub-7, or OVCAR-8). Kind of experiment: Cell proliferation assay (CELL-TITER GLO cell viability), Table 1. To be noted: 24 h incubation, cell line not stated. As for the experimental part:
(§1) The activity of a combination of a GPX4 inhibitor (e.g., compound A1, A2, or A3) and a tyrosine kinase inhibitor (e.g., neratinib, regorafenib, or sorafenib) was determined in a cell proliferation assay using cancerous cell lines (e.g., HT-29 (colorectal adenocarcinoma), Hub-7 (hepatocellular carcinoma), or OVCAR-8 (ovarian adenocarcinoma)). Cells of each cell line were seeded in a 96-well tissue culture plate. After incubated overnight, a compound or a combination was added at predetermined concentration(s). After the cells were incubated for 24 h, cell viability was determined using a CELL-TITER GLO® assay. The CELL-TITER GLO® reagent (50 μL) was added to each well and the luminescence was measured by a multimode microplate reader after a brief period of shaking. EC50 values were determined from dose response curves.

Experiment [2] has as its system Huh-7 cells. As to the kind of experiment: Cell viability assay with ferroptosis/apoptosis inhibitor rescue, Huh-7 cells (FIGS. 1-3). Conditions: GPX4 inhibitor 100 nM + sorafenib C1 3 μM. As for the experimental part:
as §1

Experiment [3] concerns HT-29 cells. Kind of experiment: Cell viability assay with ferroptosis/apoptosis inhibitor rescue, HT-29 cells (FIGS. 4-6). To be noted: GPX4 inhibitor 100 nM + sorafenib C1 3 μM. On the procedure: as §1
Setting [4] is: GPX4 inhibitor alone, read-out: Inhibition of Cell Proliferation, Monotherapy (EC50).
Setting [5] is: GPX4 inhibitor in combination with C2 (10 μM), read-out: Inhibition of Cell Proliferation, Combination +C2 (10 μM) (EC50).
[6] abbreviates: GPX4 inhibitor in combination with C3 (3 μM), read-out: Inhibition of Cell Proliferation, Combination +C3 (3 μM) (EC50).

Molecules are shown by their SMILES. Read-outs that look alike come from different tables or passages of the source. Peptide text beside a SMILES is read from it. * marks the point of attachment. Cbz = O=C(OCc1ccccc1)*; CH2F = FC*

Take `COC(=O)c1ccc(C2c3[nH]c4ccccc4c3C[C@H](C(=O)OC)N2C(=O)CCl)cc1` (stereo partly drawn) [A1, methyl (3R)-2-(2-chloroacetyl)-2,3,4,9-tetrahydro-1-(4-(methoxycarbonyl)phenyl)-1H-pyrido[3,4-b]indole-3-carboxylate]: the EC50 was 8 µM in experiment [1] (setting [4]), 0.057 µM in experiment [1] (setting [5]) and 0.97 µM in experiment [1] (setting [6]).
The corresponding values for `C#CC(=O)N1C(c2ccc(C(=O)OC)cc2)c2[nH]c3ccccc3c2C[C@@H]1CO` (stereo partly drawn) [A2, methyl 4-((3R)-3-(hydroxymethyl)-2-propioloyl-2,3,4,9-tetrahydro-1H-pyrido[3,4-b]indol-1-yl)benzoate] are 22.5 µM, 0.097 µM and 1.3 µM.
The corresponding values for `C#CC(=O)N(c1ccc(OC)c(Cl)c1)C(C(=O)NC(C)(C)C)c1ccc(N)cc1` (stereo not shown) [A3, N-(1-(4-aminophenyl)-2-(tert-butylamino)-2-oxoethyl)-N-(3-chloro-4-methoxyphenyl)propiolamide] are 5.7 µM, 0.207 µM and 1.8 µM.
Turning to `CCOC(=O)c1ccc(NC2CCCCC2)c(N)c1` [Fer-1, ferrostatin-1], the “Rescue from cell death induced by GPX4 inhibitor A1, A2, or A3 in combination with sorafenib C1” value in experiment [2] and in experiment [3] was “able to rescue” each time.
`COC(=O)C[C@H](NC(=O)[C@H](C)NC(=O)[C@@H](NC(=O)OCc1ccccc1)C(C)C)C(=O)CF` [ZVAD, Z-VAD-FMK] (Cbz-Val-Ala-Asp(OMe)-CH2F): the “Rescue from cell death induced by GPX4 inhibitor A1, A2, or A3 in combination with sorafenib C1” value in experiment [2] and in experiment [3] was “could not” throughout.

(Values after US11998534B2, “GPX4 inhibitor in combination with anticancer agent for treating proliferative disease” (Eubulus Biotherapeutics Inc., priority 2020, dated 2024).)
